What was measured:
apoE3 and apoE4 mice [1] = assay: Bexarotene by gavage: fear conditioning test; type: in vivo; conditions: 100 mg per kg per day by gavage; mild electric shock
mouse model of AD = conditions: oral administration; cited from earlier work
apoE3 and apoE4 mice [2] = assay: Bexarotene by gavage: Morris swim test; type: in vivo; conditions: 100 mg per kg per day by gavage
Text: Next, the mice were further investigated following removal of the platform from the water arena.

apoE3 and apoE4 mice [3] = assay: Bexarotene by gavage: object recognition test; conditions: 100 mg per kg per day by gavage; apoE4 mice prefer the novel object, similarly to apoE3 mice

SMILES: C=C(c1ccc(C(=O)O)cc1)c1cc2c(cc1C)C(C)(C)CCC2(C)C [Bexarotene]
- fear conditioning, freezing time: difference between apoE3 and apoE4 mice (apoE3 and apoE4 mice [1]): abolished
- apoE synthesis (mouse model of AD): enhanced
- clearance of soluble Aβ (mouse model of AD): within hours
- cognitive deficits (mouse model of AD): rapid reversal
- neural circuit function (mouse model of AD): improved
- time to reduced Aβ plaque area (mouse model of AD): ≤ 72 h
- Morris swim test, time to reach the platform, apoE4 mice (apoE3 and apoE4 mice [2]; days 1-4, rendered similar to apoE3 mice): improves
- Morris swim test, time searching for the missing platform: difference between apoE3 and apoE4 mice (apoE3 and apoE4 mice [2]; platform removed): abolished
- object recognition impairment in apoE4 mice (time spent near the novel object) (apoE3 and apoE4 mice [3]): reversed

Source: US20150118231A1, “APOE4 ANTIBODIES FOR TREATMENT OF NEURODEGENERATIVE CONDITIONS” (RAMOT AT TEL-AVIV UNIVERSITY LTD., priority 2012, published 2015)
